Reference: patent publication US20020035061A1, “COMPOSITIONS AND METHODS FOR TREATING INFECTIONS USING CATIONIC PEPTIDES ALONE OR IN COMBINATION WITH ANTIBIOTICS” (priority 1996, published 2002)
Where two headings read alike, the source gives them in different places.

What was measured:
Type in all cases: cell-based
A. calcoaceticus = test system: A. calcoaceticus
E. cloacae = test system: E. cloacae
E. coli = test system: E. coli
E. faecalis = test system: E. faecalis
K. pneumoniae = test system: K. pneumoniae
P. aeruginosa = test system: P. aeruginosa
S. aureus = test system: S. aureus
S. epidermidis = test system: S. epidermidis
S. maltophilia = test system: S. maltophilia
S. marcescens = test system: S. marcescens

Row | Sequence | MIC (A. calcoaceticus; A. calcoaceticus AC002) [µg/mL] | MIC (E. cloacae; E. cloacae ECL007) [µg/mL] | MIC (E. coli; E. coli ECO005) [µg/mL] | MIC (E. faecalis; E. faecalis EFS001) [µg/mL] | MIC (E. faecalis; E. faecalis EFS008) [µg/mL] | MIC (K. pneumoniae; K. pneumoniae KP001) [µg/mL] | MIC (P. aeruginosa; P. aeruginosa PA004) [µg/mL] | MIC (S. aureus; S. aureus SA014) [µg/mL] | MIC (S. aureus; S. aureus SA093) [µg/mL] | MIC (S. epidermidis; S. epidermidis SE010) [µg/mL] | MIC (S. maltophilia; S. maltophilia SMA002) [µg/mL] | MIC (S. marcescens; S. marcescens SMS003) [µg/mL] | MIC (A. calcoaceticus; A. calcoaceticus strain AC002) [µg/mL] | MIC (E. cloacae; E. cloacae strain ECL007) [µg/mL] | MIC (E. coli; E. coli strain ECO005) [µg/mL] | MIC (K. pneumoniae; K. pneumoniae strain KP001) [µg/mL] | MIC (P. aeruginosa; P. aeruginosa strain PA004) [µg/mL] | MIC (S. aureus; S. aureus strain SA093) [µg/mL] | MIC (S. epidermidis; S. epidermidis strain SE010) [µg/mL] | MIC (S. maltophilia; S. maltophilia strain SMA002) [µg/mL] | other results
1 | ILRWPWWPWRRA [MBI 11H12CN] | 4 | >128 | 16 | 2 | 8 | 16 | >128 | 2 | 1 | 4 | 64 | >128 | – | – | – | – | – | – | – | – | –
2 | ILRWPWWPWWPWRRK [MBI 11A9CN] | – | – | – | – | – | – | – | – | – | – | – | – | 8 | 128 | 32 | 32 | 128 | 2 | 4 | 32 | MIC (E. faecalis; E. faecalis strain EFS001): 2 µg/mL; MIC (E. faecalis; E. faecalis strain EFS008): 8 µg/mL; MIC (S. aureus; S. aureus strain SA014): 4 µg/mL; MIC (S. marcescens; S. marcescens strain SMS003): >128 µg/mL
3 | IARWPWWPWRRK [MBI 11H02CN] | 4 | >128 | 16 | 2 | 16 | 32 | >128 | 2 | 1 | 4 | 64 | >128 | – | – | – | – | – | – | – | – | –
4 | LRWPWWPW [MBI 11G26CN] | 2 | >128 | 32 | 2 | 4 | 32 | >128 | 4 | 0.5 | 4 | 128 | >128 | – | – | – | – | – | – | – | – | –
5 | ILRWPWWPWRRKMILKKAGS [MBI 11B17CN] | – | – | – | – | – | – | – | – | – | – | – | – | 2 | >128 | 8 | 16 | >128 | 2 | 4 | 32 | MIC (E. faecalis; E. faecalis strain EFS008): 4 µg/mL; MIC (S. marcescens; S. marcescens strain SMS003): >128 µg/mL
6 | KRRWPWWPWRLI [MBI 11B7CNR] | – | – | – | – | – | – | – | – | – | – | – | – | 4 | 64 | 8 | 8 | 64 | 2 | 4 | 32 | MIC (E. faecalis; E. faecalis strain EFS001): 4 µg/mL; MIC (S. marcescens; S. marcescens strain SMS003): >128 µg/mL
7 | ILRWPWWPWARK [MBI 11H10CN] | 4 | >128 | 16 | 2 | 8 | 16 | >128 | 4 | 1 | 4 | 64 | >128 | – | – | – | – | – | – | – | – | –
8 | ILKKNPNNPNRRK [MBI 11CNY1] | – | >64 | >64 | – | – | >64 | >64 | – | – | 128 | >64 | >64 | – | – | – | – | – | – | – | – | MIC (A. calcoaceticus; A. calcoaceticus AC001): >64 µg/mL; MIC (E. faecalis; E. faecalis EFS004): >64 µg/mL; MIC (S. aureus; S. aureus SA006): 16 µg/mL
